From patent publication US11000033B2, “Ketone or oxime compound, and herbicide” (NISSAN CHEMICAL CORPORATION, priority 2014, dated 2021) come the findings set out here.

Common to all, as to assay type: in vivo
Data set [1] deals with Monochoria vaginalis. As to the kind of experiment: Test Example 1: herbicidal activity, application before weed generation in submerged conditions (symbol C). The following applies: application herbicide amount 320 g/ha. In a few lines:
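Paddy pre-emergence test. Formulated emulsion, water-diluted to a predetermined rate, is applied to floodwater on sowing day; rice transplanted at 2.5 leaves. Effect read at 3 weeks on a 0–5 herbicidal-ratio scale.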

In data set [2] the test system is transplanted rice plant. As to the kind of experiment: Test Example 1: effect on crop, application before weed generation in submerged conditions (symbol a). The following applies: application herbicide amount 320 g/ha. In a few lines:
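Alluvial soil pots flooded to 4 cm water, sown with Echinochloa oryzacola, Scirpus juncoides and Monochoria vaginalis, then transplanted with 2.5 leaf stage rice seedlings; pre-emergence application. Greenhouse 25° C. to 30° C.; scored 0–5 by herbicidal ratio 3 weeks after application.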

The subject of data set [3] is Leptochloa chinensis. The data set is described as follows: Test Example 3: herbicidal effect by foliage application, Wagner pot (symbol D). The following applies: application herbicide amount 320 g/ha. An outline of the steps:
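Rating at 3 weeks post-spray, by defined criteria. Treatment: emulsion diluted with water to a predetermined amount, applied evenly to foliage of 14-day-old plants raised in alluvial soil flooded 0.1–0.5 cm deep at 25–30 °C, rice co-sown.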

For data set [4], the system named is Setaria viridis. The data set is described as follows: Test Example 4: herbicidal effect by soil treatment (symbol G). The following applies: application herbicide amount 320 g/ha. In a few lines: (§1)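 Seeds were sown in sterilized diluvial soil, covered with about 1.5 cm of soil, and the soil surface was sprayed with a water-diluted emulsion of the compound at a predetermined rate. Plants grew in a greenhouse at 25° C. to 30° C.; effects were scored visually 3 weeks after application.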

The test system of data set [5] is Avena fatua. As to the kind of experiment: Test Example 4: herbicidal effect by soil treatment (symbol I). The following applies: application herbicide amount 320 g/ha. In a few lines: as §1
Data set [6] deals with Alopecurus myosuroides. The data set is described as follows: Test Example 4: herbicidal effect by soil treatment (symbol J). The following applies: application herbicide amount 320 g/ha. An outline of the steps: as §1
Data set [7] concerns Apera spica-venti. The data set is described as follows: Test Example 4: herbicidal effect by soil treatment (symbol L). The following applies: application herbicide amount 320 g/ha. In a few lines: as §1
For data set [8], the system named is Stellaria media. As to the kind of experiment: Test Example 4: herbicidal effect by soil treatment (symbol P). The following applies: application herbicide amount 320 g/ha. In a few lines:
as §1

Data set [9] deals with Echinochloa crus-galli var. crus-galli. As to the kind of experiment: Test Example 5: herbicidal effect by foliage application, plastic box (symbol H). The following applies: 320 g/ha, 3 weeks after application. In a few lines: (§2)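 Visual herbicidal score, taken three weeks post-application, of seedlings sprayed on the foliage with water-diluted emulsion at a predetermined amount; plants were 14 days old, greenhouse-raised at 25° C. to 30° C.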

In data set [10] the test system is Lolium multiflorum Lam. The data set is described as follows: Test Example 5: herbicidal effect by foliage application, plastic box (symbol K). The following applies: 320 g/ha, 3 weeks after application. In a few lines: as §2
Data set [11] relates to Abutilon theophrasti. As to the kind of experiment: Test Example 5: herbicidal effect by foliage application, plastic box (symbol M). The following applies: 320 g/ha, 3 weeks after application. In a few lines:
as §2

Data set [12] deals with Amaranthus retroflexus. As to the kind of experiment: Test Example 5: herbicidal effect by foliage application, plastic box (symbol N). The following applies: 320 g/ha, 3 weeks after application. An outline of the steps:
as §2

Data set [13] deals with Chenopodium album. The data set is described as follows: Test Example 5: herbicidal effect by foliage application, plastic box (symbol O). The following applies: 320 g/ha, 3 weeks after application. An outline of the steps:
as §2

Data set [14] has as its system Stellaria media. As to the kind of experiment: Test Example 5: herbicidal effect by foliage application, plastic box (symbol P). The following applies: 320 g/ha, 3 weeks after application. An outline of the steps:
as §2

The test system of data set [15] is corn. As to the kind of experiment: Test Example 5: effect on crop by foliage application, plastic box (symbol c). The following applies: 320 g/ha, 3 weeks after application. An outline of the steps: (§3)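 Diluvial soil, sterilized and boxed (21 × 13 × 7 cm), received spot-sown seed covered by about 1.5 cm soil; plants were then greenhouse-grown at 25–30° C.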
Data set [16] concerns rapeseed. As to the kind of experiment: Test Example 5: effect on crop by foliage application, plastic box (symbol g). The following applies: 320 g/ha, 3 weeks after application. An outline of the steps: as §3
In data set [17] the test system is Veronica persica. The data set is described as follows: Test Example 4: herbicidal effect by soil treatment (symbol R). The following applies: application herbicide amount 320 g/ha. In a few lines: as §1

Turning to `CSCCON=C(C)CC1CC(O)=C(c2c(C)cc(C)cc2C)C1=O` (stereo not drawn) [1-029], the “Herbicidal effect grade, C: Monochoria vaginalis” value (“Herbicidal effect grade, C” for short) in data set [1] is 0 (Herbicidal ratio of 5% or lower (almost no effect)). The “Effect grade on crop, a: transplanted rice plant” value (“Effect grade on crop” below) in [2] is listed as 5 (Herbicidal ratio of 90% or more (almost completely withered)). In addition, the “herbicidal effect on D (Leptochloa chinensis), grade 0-5” value (shortened to “herbicidal effect on D”) in data set [3] is reported as 5 (Herbicidal ratio of 90% or more (almost completely withered)). Further, the “G (Setaria viridis) herbicidal effect grade” value in data set [4] was 5 (Herbicidal ratio of 90% or more (almost completely withered)). Moreover, the “I (Avena fatua) herbicidal effect grade” value in data set [5] was 1 (Herbicidal ratio of 5% or higher and lower than 20%). Moreover, in [6], the “J (Alopecurus myosuroides) herbicidal effect grade” value was 3 (Herbicidal ratio of 40% or higher and lower than 70%). In addition, the “L (Apera spica-venti) herbicidal effect grade” value in [7] is listed as 5 (Herbicidal ratio of 90% or more (almost completely withered)). Further, the “P (Stellaria media) herbicidal effect grade” value in [8] is recorded as 0 (Herbicidal ratio of 5% or lower (almost no effect)). Also, in [9], the “H: Echinochloa crus-galli var. crus-galli, herbicidal effect grade” value was 5 (Herbicidal ratio of 90% or more (almost completely withered)). In [10], the “K: Lolium multiflorum Lam., herbicidal effect grade” value is on record as 5 (Herbicidal ratio of 90% or more (almost completely withered)). Moreover, the “M: Abutilon theophrasti, herbicidal effect grade” value (“M: Abutilon theophrasti” for short) in data set [11] is 1 (Herbicidal ratio of 5% or higher and lower than 20%). For the same compound, the “N: Amaranthus retroflexus, herbicidal effect grade” value (“N: Amaranthus retroflexus” below) in data set [12] is 0 (Herbicidal ratio of 5% or lower (almost no effect)). For the same compound, the “O: Chenopodium album, herbicidal effect grade” value (“O: Chenopodium album” for short) in [13] was 3 (Herbicidal ratio of 40% or higher and lower than 70%). The “P: Stellaria media, herbicidal effect grade” value (“P: Stellaria media” for short) in [14] is 3 (Herbicidal ratio of 40% or higher and lower than 70%). Further, the “c: corn, effect on crop grade” value in [15] was 3 (Herbicidal ratio of 40% or higher and lower than 70%). For the same compound, in data set [16], the “g: rapeseed, effect on crop grade” value was 4 (Herbicidal ratio of 70% or higher and lower than 90%).

On to `CON=C(CC1CC(O)=C(c2c(C)cc(C)cc2C)C1=O)c1ccccn1` (stereo not drawn) [1-045], for which, in data set [1], the “Herbicidal effect grade, C” value is listed as 0 (Herbicidal ratio of 5% or lower (almost no effect)). Also, in data set [2], the “Effect grade on crop” value is 3 (Herbicidal ratio of 40% or higher and lower than 70%). The “herbicidal effect on D” value in [3] is 4 (Herbicidal ratio of 70% or higher and lower than 90%). Further, the “G (Setaria viridis) herbicidal effect grade” value in data set [4] is listed as 0 (Herbicidal ratio of 5% or lower (almost no effect)). The “I (Avena fatua) herbicidal effect grade” value in [5] was 0 (Herbicidal ratio of 5% or lower (almost no effect)). The “J (Alopecurus myosuroides) herbicidal effect grade” value in data set [6] is reported as 0 (Herbicidal ratio of 5% or lower (almost no effect)). Further, the “L (Apera spica-venti) herbicidal effect grade” value in [7] is on record as 0 (Herbicidal ratio of 5% or lower (almost no effect)). For the same compound, the “P (Stellaria media) herbicidal effect grade” value in data set [8] is 0 (Herbicidal ratio of 5% or lower (almost no effect)). Moreover, the “H: Echinochloa crus-galli var. crus-galli, herbicidal effect grade” value in [9] is recorded as 5 (Herbicidal ratio of 90% or more (almost completely withered)). Besides, the “K: Lolium multiflorum Lam., herbicidal effect grade” value in [10] is recorded as 5 (Herbicidal ratio of 90% or more (almost completely withered)). The “M: Abutilon theophrasti” value in data set [11] is on record as 0 (Herbicidal ratio of 5% or lower (almost no effect)). Further, the “N: Amaranthus retroflexus” value in data set [12] is 0 (Herbicidal ratio of 5% or lower (almost no effect)). The “O: Chenopodium album” value in [13] was 0 (Herbicidal ratio of 5% or lower (almost no effect)). Also, in data set [14], the “P: Stellaria media” value was 0 (Herbicidal ratio of 5% or lower (almost no effect)). For the same compound, the “c: corn, effect on crop grade” value in data set [15] was 3 (Herbicidal ratio of 40% or higher and lower than 70%). For the same compound, the “g: rapeseed, effect on crop grade” value in data set [16] is 2 (Herbicidal ratio of 20% or higher and lower than 40%).

For `CON=C(C)C(C)C1CC(O)=C(c2c(C)cc(C)cc2C)C1=O` (stereo not drawn) [1-032], the “Herbicidal effect grade, C” value in data set [1] was 3 (Herbicidal ratio of 40% or higher and lower than 70%). In addition, the “Effect grade on crop” value in data set [2] is 5 (Herbicidal ratio of 90% or more (almost completely withered)). In data set [3], the “herbicidal effect on D” value is reported as 5 (Herbicidal ratio of 90% or more (almost completely withered)). Further, the “G (Setaria viridis) herbicidal effect grade” value in [4] is on record as 5 (Herbicidal ratio of 90% or more (almost completely withered)). For the same compound, the “I (Avena fatua) herbicidal effect grade” value in [5] is 5 (Herbicidal ratio of 90% or more (almost completely withered)). The “J (Alopecurus myosuroides) herbicidal effect grade” value in [6] was 5 (Herbicidal ratio of 90% or more (almost completely withered)). Also, in [7], the “L (Apera spica-venti) herbicidal effect grade” value is 5 (Herbicidal ratio of 90% or more (almost completely withered)). In data set [9], the “H: Echinochloa crus-galli var. crus-galli, herbicidal effect grade” value was 5 (Herbicidal ratio of 90% or more (almost completely withered)). The “K: Lolium multiflorum Lam., herbicidal effect grade” value in data set [10] was 5 (Herbicidal ratio of 90% or more (almost completely withered)). The “M: Abutilon theophrasti” value in [11] is 4 (Herbicidal ratio of 70% or higher and lower than 90%). Moreover, the “N: Amaranthus retroflexus” value in data set [12] is 3 (Herbicidal ratio of 40% or higher and lower than 70%). The “O: Chenopodium album” value in data set [13] was 3 (Herbicidal ratio of 40% or higher and lower than 70%). Further, in data set [14], the “P: Stellaria media” value is 4 (Herbicidal ratio of 70% or higher and lower than 90%). Further, the “c: corn, effect on crop grade” value in data set [15] was 5 (Herbicidal ratio of 90% or more (almost completely withered)). The “g: rapeseed, effect on crop grade” value in data set [16] was 4 (Herbicidal ratio of 70% or higher and lower than 90%).

Consider `CON=C(CC1CC(OC(=O)COc2ccccc2)=C(c2c(C)cc(C)cc2C)C1=O)C1CC1` (stereo not drawn) [1-063], for which, in data set [1], the “Herbicidal effect grade, C” value is 0 (Herbicidal ratio of 5% or lower (almost no effect)). Further, in data set [2], the “Effect grade on crop” value was 5 (Herbicidal ratio of 90% or more (almost completely withered)). In addition, in data set [3], the “herbicidal effect on D” value is 5 (Herbicidal ratio of 90% or more (almost completely withered)). The “G (Setaria viridis) herbicidal effect grade” value in data set [4] is given as 5 (Herbicidal ratio of 90% or more (almost completely withered)). The “I (Avena fatua) herbicidal effect grade” value in [5] is 3 (Herbicidal ratio of 40% or higher and lower than 70%). For the same compound, the “J (Alopecurus myosuroides) herbicidal effect grade” value in [6] is recorded as 5 (Herbicidal ratio of 90% or more (almost completely withered)). Further, the “L (Apera spica-venti) herbicidal effect grade” value in [7] is on record as 5 (Herbicidal ratio of 90% or more (almost completely withered)). Moreover, the “R (Veronica persica) herbicidal effect grade” value in [17] was 0 (Herbicidal ratio of 5% or lower (almost no effect)). Further, the “H: Echinochloa crus-galli var. crus-galli, herbicidal effect grade” value in data set [9] is given as 5 (Herbicidal ratio of 90% or more (almost completely withered)). In [10], the “K: Lolium multiflorum Lam., herbicidal effect grade” value is 5 (Herbicidal ratio of 90% or more (almost completely withered)). In addition, in data set [11], the “M: Abutilon theophrasti” value is 2 (Herbicidal ratio of 20% or higher and lower than 40%). Besides, the “N: Amaranthus retroflexus” value in [12] is on record as 0 (Herbicidal ratio of 5% or lower (almost no effect)). In addition, the “O: Chenopodium album” value in [13] is listed as 0 (Herbicidal ratio of 5% or lower (almost no effect)). In addition, the “P: Stellaria media” value in data set [14] is given as 0 (Herbicidal ratio of 5% or lower (almost no effect)). The “c: corn, effect on crop grade” value in [15] is 3 (Herbicidal ratio of 40% or higher and lower than 70%). The “g: rapeseed, effect on crop grade” value in data set [16] is 4 (Herbicidal ratio of 70% or higher and lower than 90%).
